{"source": "patent US9828339B2", "about": "“Biphenyl derivatives and methods for preparing same” (DONG-A ST CO., LTD, priority 2013, dated 2017)"}
{"biological_target": "human muscarinic M3 receptor (Homo sapiens (Human), UniProt P20309)", "sequence (P20309 whole entry)": "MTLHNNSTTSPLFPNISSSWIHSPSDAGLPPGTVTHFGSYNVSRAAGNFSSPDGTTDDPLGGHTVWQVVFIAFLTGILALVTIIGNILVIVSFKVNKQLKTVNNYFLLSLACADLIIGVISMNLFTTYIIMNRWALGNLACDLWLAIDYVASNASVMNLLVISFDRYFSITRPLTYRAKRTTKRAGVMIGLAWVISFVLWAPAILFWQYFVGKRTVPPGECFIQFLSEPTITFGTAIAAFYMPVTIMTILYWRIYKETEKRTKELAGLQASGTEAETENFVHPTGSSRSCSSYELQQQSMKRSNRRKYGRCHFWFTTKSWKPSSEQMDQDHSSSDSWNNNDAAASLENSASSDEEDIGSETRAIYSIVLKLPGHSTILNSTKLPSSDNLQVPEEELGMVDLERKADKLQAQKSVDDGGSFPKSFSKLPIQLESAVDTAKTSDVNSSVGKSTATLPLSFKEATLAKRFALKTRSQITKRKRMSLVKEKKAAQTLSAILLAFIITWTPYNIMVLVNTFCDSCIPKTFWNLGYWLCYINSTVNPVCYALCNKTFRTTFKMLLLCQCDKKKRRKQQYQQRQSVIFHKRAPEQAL", "experiment": "Binding assay on human muscarinic M3 receptor ([3H]-methyl scopolamine displacement)", "conditions": "membranes overexpressing human M3 receptor, Ki from IC50 by Cheng-Prusoff, read-out: Binding Affinity to M3 Receptor, Ki", "procedure": "[Experimental Example 1] Binding Assay on Human Muscarinic M3 Receptor\nCell membrane proteins (Perkin Elmer) wherein human muscarinic M3 receptor was overexpressed, [^3H]-methyl scopolamine and test compounds in various concentration were cultured in 0.2 ml of Tris-HCl buffer at 25° C. for 120 minutes. The same was filtered under suction through glass fiber filter (Whatman GF/B), and then the filter was washed 5 times with 1 ml of Tris-HCl buffer. The radioactivity of [^3H]-methyl scopolamine adsorbed on the filter was measured by a liquid scintillation counter. Non-specific binding was evaluated under existence of 5 μM of atropine. Affinity of the compound of the present invention to muscarinic M3 receptor was calculated as the dissociation constant (Ki), which can be calculated from concentration (IC50) of test compounds inhibiting 50% of binding of [^3H]-methyl scopolamine (i.e. labeled ligand) according to Cheng and Prusoff [Cheng and Prusoff, Biochem. Pharmacol., 22, 3099, 1973].", "units": {"Ki": "nM"}}
{"smiles": "COc1ccc(NC(=O)OCCC2CCCN2C)c(-c2cccc(Cl)c2)c1", "note": "(stereo not shown) [Example 63, 2-(1-methylpyrrolidin-2-yl)ethyl(3′-chloro-5-methoxy-[1,1′-biphenyl]-2-yl)carbamate]", "Ki": 58.1}
{"smiles": "COc1ccc(NC(=O)OCCC2CCCN2C)c(-c2cc(Cl)cc(Cl)c2)c1", "note": "(stereo not shown) [Example 64, 2-(1-Methylpyrrolidin-2-yl)ethyl(3′,5′-dichloro-5-methoxy-[1,1′-biphenyl]-2-yl)carbamate]", "Ki": "> 1000"}
{"smiles": "COc1ccc(NC(=O)OCCC2CCCN2C)c(-c2ccc(F)c(Cl)c2)c1", "note": "(stereo not shown) [Example 65, 2-(1-Methylpyrrolidin-2-yl)ethyl (3′-chloro-4′-fluoro-5-methoxy-[1,1′-biphenyl]-2-yl)carbamate]", "Ki": 71.3}
{"smiles": "CN1CCCC1CCOC(=O)Nc1ccc(Cl)cc1-c1cc(F)cc(F)c1", "note": "(stereo not shown) [Example 69, 2-(1-Methylpyrrolidin-2-yl)ethyl(5-chloro-3′,5′-difluoro-[1,1′-biphenyl]-2-yl)carbamate]", "Ki": 109}
{"smiles": "CN1CCCC1CCOC(=O)Nc1ccc(Cl)cc1-c1cc(Cl)cc(Cl)c1", "note": "(stereo not shown) [Example 71, 2-(1-Methylpyrrolidin-2-yl)ethyl (3′,5,5′-trichloro-[1,1′-biphenyl]-2-yl)carbamate]", "Ki": 134}
{"smiles": "CN1CCCC1CCOC(=O)Nc1ccc(Cl)cc1-c1cc(F)cc(Cl)c1", "note": "(stereo not shown) [Example 72, 2-(1-Methylpyrrolidin-2-yl)ethyl (3′,5-dichloro-5′-fluoro-[1,1′-biphenyl]-2-yl)carbamate]", "Ki": 58.8}
{"smiles": "CN1CC[C@@H](COC(=O)Nc2ccccc2-c2ccc(C=O)c(F)c2)C1", "note": "[Example 74, (R)-(1-methylpyrrolidin-3-yl)methyl (3′-fluoro-4′-formyl-[1,1′-biphenyl]-2-yl)carbamate]", "Ki": "> 1000"}
{"smiles": "CN1CCCC1CCOC(=O)Nc1ccc(O)cc1-c1cc(F)cc(F)c1", "note": "(stereo not shown) [Example 75, 2-(1-methylpyrrolidin-2-yl)ethyl (3′,5′-difluoro-5-hydroxy-[1,1′-biphenyl]-2-yl)carbamate]", "Ki": 471}
{"smiles": "CN1CCCC1CCOC(=O)Nc1ccc(O)cc1-c1cc(Cl)cc(Cl)c1", "note": "(stereo not shown) [Example 76, 2-(1-methylpyrrolidin-2-yl)ethyl (3′,5′-dichloro-5-hydroxy-[1,1′-biphenyl]-2-yl)carbamate]", "Ki": "> 1000"}
{"smiles": "O=C(Nc1ccccc1-c1cc(F)cc(F)c1)OC[C@@H]1CCNC1", "note": "[Example 80, (R)-pyrrolidin-3-ylmethyl-(3′,5′-difluoro-[1,1′-biphenyl]-2-yl)carbamate]", "Ki": 27.4}
{"smiles": "O=C(Nc1ccccc1-c1cc(F)cc(F)c1)OC[C@H]1CCNC1", "note": "[Example 81, (S)-pyrrolidin-3-ylmethyl-(3′,5′-difluoro-[1,1′-biphenyl]-2-yl)carbamate]", "Ki": 30.4}
{"smiles": "O=C(Nc1ccc(F)cc1-c1ccccc1)OC[C@H]1CCNC1", "note": "[Example 82, (S)-pyrrolidin-3-ylmethyl-(5-fluoro-[1,1′-biphenyl]-2-yl)carbamate]", "Ki": 18.9}
{"smiles": "Cc1cccc(-c2cc(F)ccc2NC(=O)OC[C@H]2CCNC2)c1", "note": "[Example 83, (S)-pyrrolidin-3-ylmethyl (5-fluoro-3′-methyl-[1,1′-biphenyl]-2-yl)carbamate]", "Ki": 18.3}
{"smiles": "O=C(Nc1ccc(F)cc1-c1cc(F)cc(F)c1)OC[C@@H]1CCNC1", "note": "[Example 84, (R)-pyrrolidin-3-ylmethyl (3′,5,5′-trifluoro-[1,1′-biphenyl]-2-yl)carbamate]", "Ki": 34.9}
{"smiles": "Cc1ccc(NC(=O)OC[C@@H]2CCNC2)c(-c2ccccc2)c1", "note": "[Example 86, (R)-pyrrolidin-3-ylmethyl (5-methyl-[1,1′-biphenyl]-2-yl)carbamate]", "Ki": 111}
{"smiles": "Cc1ccc(NC(=O)OC[C@@H]2CCNC2)c(-c2cccc(F)c2)c1", "note": "[Example 87, (R)-pyrrolidin-3-ylmethyl (3′-fluoro-5-methyl-[1,1′-biphenyl]-2-yl)carbamate]", "Ki": 94.4}
{"smiles": "CN1CC[C@H](COC(=O)Nc2ccccc2-c2cc(F)cc(F)c2)C1", "note": "[Example 92, (S)-(1-methylpyrrolidin-3-yl)methyl (3′,5′-difluoro-[1,1′-biphenyl]-2-yl)carbamate]", "Ki": 10.7}
{"smiles": "Cc1cccc(-c2cc(F)ccc2NC(=O)OC[C@H]2CCN(C)C2)c1", "note": "[Example 94, (S)-(1-methylpyrrolidin-3-yl)methyl (5-fluoro-3′-methyl-[1,1′-biphenyl]-2-yl)carbamate]", "Ki": 6.18}
{"smiles": "CN1CC[C@H](COC(=O)Nc2ccc(F)cc2-c2cc(F)cc(F)c2)C1", "note": "[Example 96, (S)-(1-methylpyrrolidin-3-yl)methyl (3′,5,5′-trifluoro-[1,1′-biphenyl]-2-yl)carbamate]", "Ki": 17.6}
{"smiles": "Cc1ccc(NC(=O)OC[C@@H]2CCN(C)C2)c(-c2ccccc2)c1", "note": "[Example 97, (R)-(1-methylpyrrolidin-3-yl)methyl (5-methyl-[1,1′-biphenyl]-2-yl)carbamate]", "Ki": 35.2}
{"smiles": "Cc1ccc(NC(=O)OC[C@@H]2CCN(C)C2)c(-c2cccc(F)c2)c1", "note": "[Example 98, (R)-(1-methylpyrrolidin-3-yl)methyl (3′-fluoro-5-methyl-[1,1′-biphenyl]-2-yl)carbamate]", "Ki": 46.2}
{"smiles": "CCN1CC[C@@H](COC(=O)Nc2ccccc2-c2ccccc2)C1", "note": "[Example 102, (R)-(1-ethylpyrrolidin-3-yl)methyl [1,1′-biphenyl]-2-ylcarbamate]", "Ki": 12.9}
{"smiles": "CCN1CC[C@H](COC(=O)Nc2ccccc2-c2ccccc2)C1", "note": "[Example 103, (S)-(1-ethylpyrrolidin-3-yl)methyl [1,1′-biphenyl]-2-ylcarbamate]", "Ki": 13}
{"smiles": "CCN1CC[C@@H](COC(=O)Nc2ccccc2-c2cccc(C)c2)C1", "note": "[Example 104, (R)-(1-ethylpyrrolidin-3-yl)methyl (3′-methyl-[1,1′-biphenyl]-2-yl)carbamate]", "Ki": 14.2}
{"smiles": "CCN1CC[C@H](COC(=O)Nc2ccccc2-c2cccc(C)c2)C1", "note": "[Example 105, (S)-(1-ethylpyrrolidin-3-yl)methyl (3′-methyl-[1,1′-biphenyl]-2-yl)carbamate]", "Ki": 19.6}
{"smiles": "CC(C)CN1CCC[C@H]1COC(=O)Nc1ccccc1-c1ccccc1", "note": "[Example 107, (S)-(1-isobutylpyrrolidin-2-yl)-methyl [1,1′-biphenyl]-2-ylcarbamate]", "Ki": 752}
{"smiles": "Cc1cccc(-c2ccccc2NC(=O)OC[C@H]2CCCN2C)c1", "note": "[Example 110, (R)-(1-methylpyrrolidin-2-yl)-methyl (3′-methyl-[1,1′-biphenyl]-2-yl)carbamate]", "Ki": 9.13}
{"smiles": "Cc1cccc(-c2cc(F)ccc2NC(=O)OC[C@H]2CCCN2C)c1", "note": "[Example 111, (R)-(1-methylpyrrolidin-2-yl)-methyl (5-fluoro-3′-methyl-[1,1′-biphenyl]-2-yl)carbamate]", "Ki": 10.8}
{"smiles": "CN1CC[C@@H](COC(=O)Nc2ccccc2-c2cccc(F)c2)C1", "note": "[Example 113, (R)-(1-methylpyrrolidin-3-yl)-methyl (3′-fluoro-[1,1′-biphenyl]-2-yl)carbamate]", "Ki": 1.92}
{"smiles": "CN1CC[C@H](COC(=O)Nc2ccccc2-c2cc(Cl)cc(Cl)c2)C1", "note": "[Example 119, (S)-(1-methylpyrrolidin-3-yl)methyl(3′,5′-dichloro-[1,1′-biphenyl]-2-yl)carbamate]", "Ki": 42.3}
{"smiles": "Cc1cc(C)cc(-c2cc(F)ccc2NC(=O)OC[C@H]2CCN(C)C2)c1", "note": "[Example 122, (S)-(1-methylpyrrolidin-3-yl)methyl(5-fluoro-3′,5′-dimethyl-[1,1′-biphenyl]-2-yl)carbamate]", "Ki": 87.8}
{"smiles": "CN1CC[C@H](COC(=O)Nc2ccc(F)cc2-c2cc(O)cc(Cl)c2)C1", "note": "[Example 123, (S)-(1-methylpyrrolidin-3-yl)methyl(3′-chloro-5-fluoro-5′-hydroxy-[1,1′-biphenyl]-2-yl)carbamate]", "Ki": 52.8}
{"smiles": "CN1CC[C@H](COC(=O)Nc2ccc(F)cc2-c2ccc(Cl)cc2)C1", "note": "[Example 127, (S)-(1-methylpyrrolidin-3-yl)methyl(4′-chloro-5-fluoro-[1,1′-biphenyl]-2-yl)carbamate]", "Ki": 69.4}
{"smiles": "CN1CC[C@@H](COC(=O)Nc2ccc(F)cc2-c2cccc(N)c2)C1", "note": "[Example 133, (R)-(1-methylpyrrolidin-3-yl)methyl(5-fluoro-3′-amino-[1,1′-biphenyl]-2-yl)carbamate]", "Ki": 34.5}
{"smiles": "CN1CC[C@@H](COC(=O)Nc2ccc(F)cc2-c2cc(O)cc(Cl)c2)C1", "note": "[Example 134, (R)-(1-methylpyrrolidin-3-yl)methyl(3′-chloro-5-fluoro-5′-hydroxy-[1,1′-biphenyl]-2-yl)carbamate]", "Ki": 46.9}
{"smiles": "CN1CC[C@@H](COC(=O)Nc2ccccc2-c2cccc(O)c2)C1", "note": "[Example 137, (R)-(1-methylpyrrolidin-3-yl)methyl(3′-hydroxy-[1,1′-biphenyl]-2-yl)carbamate]", "Ki": 27}
{"smiles": "CN1CC[C@@H](COC(=O)Nc2ccccc2-c2cc(Cl)cc(C(F)(F)F)c2)C1", "note": "[Example 138, (R)-(1-methylpyrrolidin-3-yl)methyl(3′-chloro-5′-(trifluoromethyl)-[1,1′-biphenyl]-2-yl)carbamate]", "Ki": "> 1000"}
{"smiles": "COc1cc(Cl)cc(-c2cc(F)ccc2NC(=O)OC[C@@H]2CCN(C)C2)c1", "note": "[Example 139, (R)-(1-methylpyrrolidin-3-yl)methyl(3′-chloro-5-fluoro-5′-methoxy-[1,1′-biphenyl]-2-yl)carbamate]", "Ki": 82.7}
{"smiles": "CN1CC[C@@H](COC(=O)Nc2ccc(F)cc2-c2cc(Cl)cc(C(F)(F)F)c2)C1", "note": "[Example 140, (R)-(1-methylpyrrolidin-3-yl)methyl(3′-chloro-5-fluoro-5′-(trifluoromethyl)-[1,1′-biphenyl]-2-yl)carbamate]", "Ki": "> 1000"}
{"smiles": "COc1ccc(NC(=O)OC[C@@H]2CCN(C)C2)c(-c2ccc(F)c(Cl)c2)c1", "note": "[Example 147, (R)-(1-methylpyrrolidin-3-yl)methyl(3′-chloro-4′-fluoro-5-methoxy-[1,1′-biphenyl]-2-yl)carbamate]", "Ki": 77.4}
